Patent US4166810A, “Derivatives of 4-desacetyl VLB C-3 carboxyhydrazide” (priority 1978, dated 1979)
Where two headings read alike, the source gives them in different places.

What was measured:
[1] = system: Gardner lymphosarcoma (GLS); experiment: Transplanted tumor growth inhibition in mice, Gardner lymphosarcoma (GLS); format: in vivo
Description: (§1) The compounds of this invention are active in inhibiting the growth of transplanted tumors in mice and/or in prolonging the life of tumor-innoculated mice. […] The size of the tumor was measured at 7 or 11 days where the drug inhibited tumor growth. Where life-prolongation was concerned, extra life span of treated animals over that of control animals was determined.
(§2) The following table--Table 1--gives the results of experiments in which mice bearing transplanted tumors were treated successfully with a compound of this invention. In the table, column 1 gives the name of the compound; column 2, the transplanted tumor; column 3, the dose level or dose level range and the number of days the dosage was administered; and column 4, the percent inhibition of tumor growth or percent prolongation of survival time, e.g., B16 (ROS is an abbreviation for Ridgeway osteogenic sarcoma; GLS for Gardner lymphosarcoma; P 1534 (J) for a leukemia and B16 for a malignant melanoma.

[2] = system: experimental malignancies; settings: animals; cited from earlier work
[3] = system: Ridgeway osteogenic sarcoma (ROS); experiment: Transplanted tumor growth inhibition in mice, Ridgeway osteogenic sarcoma (ROS); format: in vivo
Description: as §1, §2

[4] = 0.25 mg/kg × 10 days, measured at 11 days
[5] = 0.5 mg/kg × 10 days, measured at 7 days
[6] = 0.5 mg/kg × 10 days, measured at 11 days
[7] = Mus musculus, 168 h, 0.125 mg/kg × 10 days, measured at 7 days, read-out: Percent Inhibition (of tumor growth), 7 days
[8] = Mus musculus, 168 h, 0.25 mg/kg × 10 days, measured at 7 days, read-out: Percent Inhibition (of tumor growth), 7 days
[9] = Mus musculus, 264 h, 0.125 mg/kg × 10 days, measured at 11 days, read-out: Percent Inhibition (of tumor growth), 11 days
[10] = Mus musculus, 168 h, 0.2 mg/kg × 9 days, 7 days, read-out: Percent Inhibition (of tumor growth), 7 days
[11] = Mus musculus, 168 h, 0.5 mg/kg × 10 days, measured at 7 days, read-out: Percent Inhibition (of tumor growth), 7 days
[12] = Mus musculus, 264 h, 0.25 mg/kg × 10 days, measured at 11 days, read-out: Percent Inhibition (of tumor growth), 11 days

Molecule | Percent Inhibition (of tumor growth), 7 days [1, 5] | Percent Inhibition (of tumor growth), 11 days [1, 6] | inhibition in vivo at 0.125 mg/kg [1, 7] | inhibition in vivo at 0.25 mg/kg [1, 8] | inhibition in vivo at 0.125 mg/kg [1, 9] | activity in the treatment of experimental malignancies [2] | further results
CCC1(O)CC2CN(CCc3c([nH]c4ccccc34)C(C(=O)OC)(c3cc4c(cc3OC)N(C)C3C(O)(C(=O)NNC(=O)c5ccccc5)C(O)C5(CC)C=CCN6CCC43C65)C2)C1 (stereo not shown) [4-Desacetyl VLB C-3 N^2-benzoylcarboxhydrazide] | Toxic | Toxic | 76% | 100% | 45% |  | Percent Inhibition (of tumor growth), 11 days [1, 4]: Toxic
CC[C@]1(O)C[C@@H]2CN(CCc3c([nH]c4ccccc34)[C@@](C(=O)OC)(c3cc4c(cc3OC)N(C)[C@H]3[C@@](O)(C(=O)OC)[C@H](OC(C)=O)[C@]5(CC)C=CCN6CC[C@]43[C@@H]65)C2)C1 [VLB, vincaleukoblastine] |  |  |  |  |  | found active in the treatment of experimental malignancies in animals | 
CC=NNC(=O)C1(O)C(O)C2(CC)C=CCN3CCC4(c5cc(C6(C(=O)OC)CC7CN(CCc8c6[nH]c6ccccc86)CC(O)(CC)C7)c(OC)cc5N(C)C14)C32 (stereo not shown) [4-Desacetyl VLB C-3 N^2-ethylidenecarboxhydrazide] |  |  |  |  |  |  | Percent Inhibition (of tumor growth), 7 days ([1]; 0.4 mg/kg × 9 days, 7 days): Toxic; inhibition in vivo at 0.2 mg/kg [1, 10]: 100%; Percent Inhibition (of tumor growth), 7 days ([3]; 0.2 mg/kg × 9 days): 100%; Percent Inhibition (of tumor growth), 7 days ([3]; 0.4 mg/kg × 9 days): Toxic
CC[C@]1(O)C[C@H]2CN(CCc3c([nH]c4ccccc34)[C@@](C(=O)OC)(c3cc4c(cc3OC)N(C=O)[C@H]3[C@@](O)(C(=O)OC)[C@H](OC(C)=O)[C@]5(CC)C=CCN6CC[C@]43[C@@H]65)C2)C1 [vincristine, leurocristine] |  |  |  |  |  | found active in the treatment of experimental malignancies in animals | 
CCOC(=O)NNC(=O)C1(O)C(O)C2(CC)C=CCN3CCC4(c5cc(C6(C(=O)OC)CC7CN(CCc8c6[nH]c6ccccc86)CC(O)(CC)C7)c(OC)cc5N(C)C14)C32 (stereo not shown) [4-Desacetyl VLB C-3 N^2-ethylcarbazylcarboxhydrazide] |  |  |  |  |  |  | inhibition in vivo at 0.2 mg/kg ([1]; Mus musculus, 168 h, 0.2 mg/kg × 7 days, measured at 7 days, read-out: Percent Inhibition (of tumor growth), 7 days): 100%; inhibition in vivo at 0.4 mg/kg ([1]; Mus musculus, 168 h, 0.4 mg/kg × 7 days, measured at 7 days, read-out: Percent Inhibition (of tumor growth), 7 days): 93%; Percent Inhibition (of tumor growth), 7 days ([3]; 0.2 mg/kg × 10 days): 66%; Percent Inhibition (of tumor growth), 7 days ([3]; 0.4 mg/kg × 10 days): Toxic
CCC1(O)CN2CCc3c([nH]c4ccccc34)C(C(=O)OC)(c3cc4c(cc3OC)N(C)C3C(O)(C(=O)OC)C(OC(C)=O)C5(CC)C=CCN6CCC43C65)CC(C2)C1O (stereo not shown) [vincadioline] |  |  |  |  |  | found active in the treatment of experimental malignancies in animals | 
CCC1(O)CC2CN(CCc3c([nH]c4ccccc34)C(C(=O)OC)(c3cc4c(cc3OC)N(C)C3C(O)(C(=O)NNC)C(O)C5(CC)C=CCN6CCC43C65)C2)C1 (stereo not shown) [4-Desacetyl VLB C-3 N^2-methylcarboxhydrazide] |  |  | 83% |  | 53% |  | Percent Inhibition (of tumor growth), 7 days ([1]; 0.25-0.5 mg/kg × 10 days, measured at 7 days): Toxic; Percent Inhibition (of tumor growth), 11 days ([1]; 0.25-0.5 mg/kg × 10 days, measured at 11 days): Toxic
CCCC(=O)NNC(=O)C1(O)C(O)C2(CC)C=CCN3CCC4(c5cc(C6(C(=O)OC)CC7CN(CCc8c6[nH]c6ccccc86)CC(O)(CC)C7)c(OC)cc5N(C)C14)C32 (stereo not shown) [4-desacetyl VLB C-3 N^2-butyrylcarboxhydrazide] |  | Toxic | 100% | 100% | 100% |  | inhibition in vivo at 0.5 mg/kg [1, 11]: 64%; inhibition in vivo at 0.25 mg/kg [1, 12]: 100%
leurosidine |  |  |  |  |  | found active in the treatment of experimental malignancies in animals | 
CC[C@]12CN3CCc4c([nH]c5ccccc45)[C@@](C(=O)OC)(c4cc5c(cc4OC)N(C)[C@H]4[C@@](O)(C(=O)OC)[C@H](OC(C)=O)[C@]6(CC)C=CCN7CC[C@]54[C@@H]76)C[C@H](C3)[C@H]1O2 [leurosine] |  |  |  |  |  | found active in the treatment of experimental malignancies in animals | 
CC[C@]12CN3CCc4c([nH]c5ccccc45)[C@@](C(=O)OC)(c4cc5c(cc4OC)N(C=O)[C@H]4[C@@](O)(C(=O)OC)[C@H](OC(C)=O)[C@]6(CC)C=CCN7CC[C@]54[C@@H]76)C[C@@H](C3)[C@H]1O2 [leuroformine] |  |  |  |  |  | found active in the treatment of experimental malignancies in animals | 
CCC1(O)CC2CN(CCc3c([nH]c4ccccc34)C(C(=O)OC)(c3cc4c(cc3OC)N(C)C3C(O)(C(=O)NN=C(C)C)C(O)C5(CC)C=CCN6CCC43C65)C2)C1 (stereo not shown) [4-Desacetyl VLB C-3 N^2-isopropylidenecarboxhydrazide] |  |  |  |  |  |  | Percent Inhibition (of tumor growth), 7 days ([3]; 0.05 mg/kg × 10 days): 33%; Percent Inhibition (of tumor growth), 7 days ([3]; 0.1 mg/kg × 10 days): 42%; Percent Inhibition (of tumor growth), 7 days ([3]; 0.15 mg/kg × 10 days): 74%; Percent Inhibition (of tumor growth), 7 days ([3]; 0.2-1.0 mg/kg × 10 days): Toxic
CCC1(O)CN2CCc3c([nH]c4ccccc34)C(C(=O)OC)(c3cc4c(cc3OC)N(C)C3C(O)(C(=O)OC)C(OC(C)=O)C5(CC)C=CCN6CCC43C65)CC(O)(C2)C1 (stereo not shown) [leurocolombine] |  |  |  |  |  | found active in the treatment of experimental malignancies in animals | 
CCC1(O)CC2CN(CCc3c([nH]c4ccccc34)C(C(=O)OC)(c3cc4c(cc3OC)N(C)C3C(O)(C(=O)NNCCOC(C)=O)C(O)C5(CC)C=CCN6CCC43C65)C2)C1 (stereo not drawn) [4-desacetyl VLB C-3 N^2-(β-acetoxy)ethylcarboxhydrazide] |  |  | 74% | 100% | 26% |  | inhibition in vivo at 0.5 mg/kg [1, 11]: 100%; inhibition in vivo at 0.25 mg/kg [1, 12]: 73%; inhibition in vivo at 0.5 mg/kg ([1]; Mus musculus, 264 h, 0.5 mg/kg × 10 days, measured at 11 days, read-out: Percent Inhibition (of tumor growth), 11 days): 100%
CCNNC(=O)C1(O)C(O)C2(CC)C=CCN3CCC4(c5cc(C6(C(=O)OC)CC7CN(CCc8c6[nH]c6ccccc86)CC(O)(CC)C7)c(OC)cc5N(C)C14)C32 (stereo not shown) [4-Desacetyl VLB C-3 N^2-ethylcarboxhydrazide] | Toxic | Toxic |  | 100% |  |  | Percent Inhibition (of tumor growth), 11 days [1, 4]: Toxic
C=NNC(=O)C1(O)C(O)C2(CC)C=CCN3CCC4(c5cc(C6(C(=O)OC)CC7CN(CCc8c6[nH]c6ccccc86)CC(O)(CC)C7)c(OC)cc5N(C)C14)C32 (stereo not shown) [4-Desacetyl VLB C-3 N^2-methylidenecarboxhydrazide] | Toxic | Toxic | 91% | 100% | 91% |  | inhibition in vivo at 0.25 mg/kg [1, 12]: 100%
CCC1(O)CC2CN(CCc3c([nH]c4ccccc34)C(C(=O)OC)(c3cc4c(cc3OC)N(C)C3C(O)(C(=O)NNCCO)C(O)C5(CC)C=CCN6CCC43C65)C2)C1 (stereo not drawn) [4-Desacetyl VLB C-3 N^2-(β-hydroxy)ethylcarboxhydrazide] | Toxic | Toxic | 77% | 100% | 37% |  | inhibition in vivo at 0.1 mg/kg ([1]; Mus musculus, 168 h, 0.1 mg/kg × 9 days, 7 days, read-out: Percent Inhibition (of tumor growth), 7 days): 0%; inhibition in vivo at 0.2 mg/kg [1, 10]: 100%; inhibition in vivo at 0.3 mg/kg ([1]; Mus musculus, 168 h, 0.3 mg/kg × 7 days, measured at 7 days, read-out: Percent Inhibition (of tumor growth), 7 days): 20%; inhibition in vivo at 0.3 mg/kg ([1]; Mus musculus, 168 h, 0.3 mg/kg × 9 days, 7 days, read-out: Percent Inhibition (of tumor growth), 7 days): 17%; inhibition in vivo at 0.5 mg/kg ([1]; Mus musculus, 168 h, 0.5 mg/kg × 7 days, measured at 7 days, read-out: Percent Inhibition (of tumor growth), 7 days): 90%; inhibition in vivo at 0.25 mg/kg [1, 12]: 40%; Percent Inhibition (of tumor growth), 7 days ([3]; 0.2 mg/kg × 10 days): 0%; Percent Inhibition (of tumor growth), 7 days ([3]; 0.3 mg/kg × 10 days): 14%; Percent Inhibition (of tumor growth), 7 days ([3]; 0.5 mg/kg × 10 days): Toxic
CCC1(O)CC2CN(CCc3c([nH]c4ccccc34)C(C(=O)OC)(c3cc4c(cc3OC)N(C)C3C(O)(C(=O)NN(C)C)C(O)C5(CC)C=CCN6CCC43C65)C2)C1 (stereo not shown) [4-Desacetyl VLB C-3 N^2,N^2-dimethylcarboxhydrazide] | Toxic | Toxic | 100% | 100% | 93% |  | 
VLB C-3 N^2 -(β-acetoxy)ethyl-carboxhydrazide | 100% | 87% |  |  |  |  | Percent Inhibition (of tumor growth), 7 days ([1]; 0.125 mg/kg × 10 days, measured at 7 days): 36%; Percent Inhibition (of tumor growth), 11 days ([1]; 0.125 mg/kg × 10 days, measured at 11 days): 35%; Percent Inhibition (of tumor growth), 7 days ([1]; 0.25 mg/kg × 10 days, measured at 7 days): 74%; Percent Inhibition (of tumor growth), 11 days [1, 4]: 55%
